Drawing on patent US20220217980A1, “DITHIOCARBAMATE FUNGICIDE MACROMOLECULAR COMPLEXES” (Adama Makhteshim Ltd., priority 2019, published 2022), this text covers solubility and zeta potential for 1 compound.

For data set [1] the following is noted: at 20° C.; cited from earlier work.
A short description of data set [2]: Zeta potential analysis of mancozeb dispersions with and without polycations (Zetasizer Nano). The format is physicochemical. The text has this: Zeta potential is an indicator for complexation and stability of a dispersion. A zeta potential close to zero between −10 mV and +10 Mv indicates a maximum interaction between polyelectrolytes and MZ. The Zeta potential is the charge that develops at the interface between a solid surface and its liquid medium. Zeta potential values give a value of the net charge (in mV) on particle surfaces.
To a 1 g/l aqueous polycation solution (chitosan (CTS), ϵ-poly-L-lysine or polyallylamine (PAA)), 5, 40, 60, 80 and 120 g/l of MZ powder was added, resulting in ratios 1:5, 1:40, 1:60, 1:80 and 1:120 (based on weigh/weight % of dry material), respectively. Mancozeb added to an aqueous solution served as a control. The dispersions were mixed for 10 min on a vortexing device.
The different polycation-mancozeb incubations were analyzed for the Zeta potential with a Zetasizer Nano (Malvern Instruments. United Kingdom).

For `S=C([S-])NCCNC(=S)[S-].[Mn+2].[Zn]` [Mancozeb, zinc; manganese(2+); N-[2-(sulfidocarbothioylamino)ethyl]carbamodithioate], in data set [1], the solubility result was “about 6.2 mg per liter”. In addition, the zeta potential was −18.2 mV in data set [2] (ratio polycation:mancozeb 1:5); −20.6 mV in data set [2] (ratio polycation:mancozeb 1:40); −20.5 mV in data set [2] (ratio polycation:mancozeb 1:60); −18.9 mV in data set [2] (ratio polycation:mancozeb 1:80); −18.3 mV in data set [2] (ratio polycation:mancozeb 1:120).
